From patent US4103011A, “Novel penicillin compounds and process for preparation thereof” (priority 1976, dated 1978)
≈ marks a conversion by molar mass, not a printed value. Counter-ions that a name gives are not always drawn. Like-named read-outs stand apart in the source and are kept apart here.

Legend:
[1] = tested on: Corynebacterium pyogenes C-21; assay: In vitro antibacterial activity (MIC); type: cell-based; conditions: Rhodococcus (subgen. Prescottella) equi, C21; Corynebacterium pyogenes C-21; read-out: minimum inhibitory concentration (MIC)
Description: (§1) In vitro antibacterial activity against 20 strains of bacteria
(§2) The numerals in the table show minimum inhibitory concentrations (MIC)

[2] = tested on: Enterobacter cloacae P-2540; assay: In vitro antibacterial activity (MIC); type: cell-based; conditions: P2540; Enterobacter cloacae P-2540; read-out: minimum inhibitory concentration (MIC)
Description: as §1, §2

[3] = tested on: Escherichia coli NIHJ JC-2; assay: In vitro antibacterial activity (MIC); type: cell-based; conditions: Escherichia coli, NIHJJC2, read-out: minimum inhibitory concentration (MIC)
Description: as §1, §2

Escherichia coli P-140a = assay: In vitro antibacterial activity (MIC); type: cell-based
Description: as §1, §2

Escherichia coli P-5101 [4] = assay: In vitro antibacterial activity (MIC); type: cell-based
Description: as §1, §2

[5] = tested on: Klebsiella pneumoniae No. 13; assay: In vitro antibacterial activity (MIC); type: cell-based; conditions: Klebsiella pneumoniae, NO.13, read-out: minimum inhibitory concentration (MIC)
Description: as §1, §2

Proteus mirabilis P-2381 = assay: In vitro antibacterial activity (MIC); type: cell-based; conditions: Proteus mirabilis, P2381, read-out: minimum inhibitory concentration (MIC)
Description: as §1, §2

Proteus morganii Kono = assay: In vitro antibacterial activity (MIC); type: cell-based; conditions: Morganella morganii, read-out: minimum inhibitory concentration (MIC)
Description: as §1, §2

Proteus rettgeri P-2503 = assay: In vitro antibacterial activity (MIC); type: cell-based; conditions: Providencia rettgeri, P2503, read-out: minimum inhibitory concentration (MIC)
Description: as §1, §2

[6] = tested on: Pseudomonas aeruginosa No.12; assay: In vitro antibacterial activity (MIC); type: cell-based; conditions: Pseudomonas aeruginosa, NO.12, read-out: minimum inhibitory concentration (MIC)
Description: as §1, §2

[7] = tested on: Pseudomonas aeruginosa Tsuchijima; assay: In vitro antibacterial activity (MIC); type: cell-based; conditions: Pseudomonas aeruginosa Tsuchijima; read-out: minimum inhibitory concentration (MIC)
Description: as §1, §2

[8] = tested on: Salmonella enteritidis No. 1891; assay: In vitro antibacterial activity (MIC); type: cell-based; conditions: Salmonella enterica; Salmonella enteritidis No. 1891; read-out: minimum inhibitory concentration (MIC)
Description: as §1, §2

[9] = tested on: Salmonella typhimurium S-9; assay: In vitro antibacterial activity (MIC); type: cell-based; conditions: Salmonella enterica; Salmonella typhimurium S-9; read-out: minimum inhibitory concentration (MIC)
Description: as §1, §2

[10] = tested on: Serratia mercescens IFO 3736; assay: In vitro antibacterial activity (MIC); type: cell-based; conditions: Serratia, IFO3736, read-out: minimum inhibitory concentration (MIC)
Description: as §1, §2

Shigella flexneri 2a = assay: In vitro antibacterial activity (MIC); type: cell-based; conditions: read-out: minimum inhibitory concentration (MIC)
Description: as §1, §2

[11] = tested on: Shigella flexneri 4a P-330; assay: In vitro antibacterial activity (MIC); type: cell-based; conditions: 4AP330, read-out: minimum inhibitory concentration (MIC)
Description: as §1, §2

[12] = tested on: Staphylococcus aureus 209P JC-1; assay: In vitro antibacterial activity (MIC); type: cell-based; conditions: read-out: minimum inhibitory concentration (MIC)
Description: as §1, §2

[13] = tested on: Staphylococcus aureus No. 50774; assay: In vitro antibacterial activity (MIC); type: cell-based; conditions: Staphylococcus aureus No. 50774; read-out: minimum inhibitory concentration (MIC)
Description: as §1, §2

[14] = tested on: Streptococcus faecalis P-2473; assay: In vitro antibacterial activity (MIC); type: cell-based; conditions: Enterococcus faecalis, P2473, read-out: minimum inhibitory concentration (MIC)
Description: as §1, §2

[15] = tested on: Streptococcus pyogenes 65A; assay: In vitro antibacterial activity (MIC); type: cell-based; conditions: read-out: minimum inhibitory concentration (MIC)
Description: as §1, §2

[16] = tested on: Staphylococcus aureus No. 50774; assay: In vivo efficacy against systemic infection; design: species or system male mice (ddY); conditions: NO.50774, in Mus musculus, 336 h, sc, twice, about 5 minutes and 6 hours after infection, read-out: ED50 (median effective dose)
Protocol: (§3) The contents in the vials (No. A and No. C) prepared in Example 17 were each dissolved in deionized water, and injections having various concentrations were prepared.
Compounds A, B, F, G, H and M were dissolved in deionized water. Compounds C, D, E and J were dissolved in an aqueous solution of sodium carbonate (pH 8-9) to prepare injections of various concentrations.
Each of the injections was administered to mice under the conditions described below, and the median effective doses (ED50) obtained are shown in Table II.
(§4) Mice: male mice (ddY) weighting about 20g
Staphylococcus aureus No. 50774;
Intravenous infection with 50 to 100
LD50 (about 5 × 10^8cells/mouse) of a
bacterial suspension in saline.
(§5) twice, about 5 minutes and 6 hours after
Staphylococcus aureus No. 50774 14 days
The numerals in the table show ED50 (mg/kg). ED50 values were
(§6) calculated in accordance with the Behrens-Kaerber method [Arch. Exp. Path

Escherichia coli P-5101 [17] = assay: In vivo efficacy against systemic infection; design: species or system male mice (ddY); conditions: P5101, in Mus musculus, 168 h, sc, twice, about 5 minutes and 6 hours after infection, read-out: ED50 (median effective dose)
Protocol: as §3
(§7) Compounds A, B, F, G, H and M were dissolved in deionized water.
as §4
(§8) Intraperitoneal infection with 50 to
(§9) of a bacterial suspension in tryptosoy
as §5, §6

[18] = tested on: Pseudomonas aeruginosa No. 12; assay: In vivo efficacy against systemic infection; design: species or system male mice (ddY); conditions: NO.12, in Mus musculus, sc, twice, about 5 minutes and 6 hours after infection, read-out: ED50 (median effective dose)
Protocol: as §3, §7, §4
Pseudomonas aeruginosa No. 12;
as §8, §9, §5
Pseudomonas aeruginosa No. 12
as §6

in vivo = conditions: mouse

For `CC1(C)S[C@@H]2[C@H](NC(=O)[C@H](NC(=O)c3c[nH]c4nc(N5CCN(C=O)CC5)ncc4c3=O)c3ccccc3)C(=O)N2[C@H]1C(=O)O` [Compound B, D-α-[5,8-Dihydro-2-(4-formyl-1-piperazinyl)-5-oxopyrido[2,3-d]pyrimidine-6-carboxamido]-benzylpenicillin sodium salt], the MIC [1] was 1.56 µg/mL, the MIC [2] was 12.5 µg/mL and the MIC [3] was 6.25 µg/mL. The “minimum inhibitory concentration (MIC)” value (Escherichia coli P-140a) was 12.5 µg/mL, the MIC (Escherichia coli P-5101 [4]; Escherichia coli, P5101, read-out: minimum inhibitory concentration (MIC)) was 3.13 µg/mL and the MIC [5] was 6.25 µg/mL. It also gave an MIC (Proteus mirabilis P-2381) of 3.13 µg/mL, an MIC (Proteus morganii Kono) of 3.13 µg/mL and an MIC (Proteus rettgeri P-2503) of 6.25 µg/mL. For the same compound, the MIC [6] was 6.25 µg/mL, the MIC [7] was 1.56 µg/mL and the MIC [8] was 0.78 µg/mL. For the same compound, the MIC [9] was 1.56 µg/mL, the MIC [10] was 12.5 µg/mL and the MIC (Shigella flexneri 2a) was 3.13 µg/mL. For the same compound, the MIC [11] was 6.25 µg/mL, the MIC ([12]; Staphylococcus aureus, 209P) was 0.78 µg/mL and the MIC [13] was 0.78 µg/mL. For the same compound, the MIC [14] was 6.25 µg/mL, the MIC ([15]; Streptococcus pyogenes, 65A) was under 0.1 µg/mL and the ED50 [16] was 3.4 mg/kg. For the same compound, the ED50 (Escherichia coli P-5101 [17]) was 21 mg/kg, the ED50 [18] was 17.7 mg/kg and the LD50 at 168 h (in vivo; iv) was 2830 mg/kg. It also gave an LD50 at 168 h (in vivo; sc) of under 4000 mg/kg.
Work on `CN(C)c1ncc2c(=O)c(C(=O)N[C@@H](C(=O)N[C@@H]3C(=O)N4[C@@H]3SC(C)(C)[C@@H]4C(=O)O)c3ccc(O)cc3)c[nH]c2n1` [Compound E, D-α-(5,8-Dihydro-2-dimethylamino-5-oxopyrido[2,3-d]pyrimidine-6-carboxamido)-p-hydroxybenzylpenicillin] yielded an MIC [1] of 0.78 µg/mL (≈ 1.34 µM), an MIC [2] of 12.5 µg/mL (≈ 21.5 µM) and an MIC [3] of 6.25 µg/mL (≈ 10.7 µM). The “minimum inhibitory concentration (MIC)” value (Escherichia coli P-140a) was 25 µg/mL (≈ 43 µM), the MIC (Escherichia coli P-5101 [4]; P5101, Escherichia coli P-5101, read-out: minimum inhibitory concentration (MIC)) was 1.56 µg/mL (≈ 2.68 µM) and the MIC [5] was 12.5 µg/mL (≈ 21.5 µM). It also gave an MIC (Proteus mirabilis P-2381) of 3.13 µg/mL (≈ 5.38 µM), an MIC (Proteus morganii Kono) of 6.25 µg/mL (≈ 10.7 µM) and an MIC (Proteus rettgeri P-2503) of 6.25 µg/mL (≈ 10.7 µM). It also gave an MIC [6] of 3.13 µg/mL (≈ 5.38 µM), an MIC [7] of 1.56 µg/mL (≈ 2.68 µM) and an MIC [8] of 0.78 µg/mL (≈ 1.34 µM). For the same compound, the MIC [9] was 1.56 µg/mL (≈ 2.68 µM), the MIC [10] was 6.25 µg/mL (≈ 10.7 µM) and the MIC [11] was 6.25 µg/mL (≈ 10.7 µM). The MIC ([12]; Staphylococcus aureus 209P JC-1) was 0.78 µg/mL (≈ 1.34 µM), the MIC [13] was 0.78 µg/mL (≈ 1.34 µM) and the MIC [14] was 3.13 µg/mL (≈ 5.38 µM). For the same compound, the MIC ([15]; Streptococcus pyogenes 65A) was 0.025 µg/mL (≈ 0.043 µM), the ED50 [16] was about 10 mg/kg and the ED50 (Escherichia coli P-5101 [17]) was 11 mg/kg. For the same compound, the ED50 [18] was 32.4 mg/kg, the LD50 at 168 h (in vivo; sc) was 1070 mg/kg and the selectivity ratio (in vivo; sc) was 33.
